Drawing on ChEMBL document CHEMBL4184137, “Lysine Deacetylase Inhibitors in Parasites: Past, Present, and Future Perspectives” (J Med Chem, 2017), this text covers IC50, selectivity ratio and Activity for 4 compounds.

Series [1] concerns Plasmodium falciparum. As to the kind of experiment: Antimalarial activity against Plasmodium falciparum infected in human erythrocytes after 24 hrs by microbeta scintillation counting-based [3H]-hypoxanthine incorporation assay. The format is functional, organism-based.
Series [2] can be described thus: Selectivity index, ratio of IC50 for human NHDF cells to IC50 for Plasmodium falciparum. The following applies: read-out: Ratio IC50. The format is toxicity.
A short description of series [3]: Selectivity index, ratio of IC50 for HUVEC to IC50 for Plasmodium falciparum. The format is toxicity. The following applies: human, read-out: Ratio IC50.
Series [4] in a line: Selectivity index, ratio of IC50 for human PTC cells to IC50 for Plasmodium falciparum. The format is toxicity. The following applies: read-out: Ratio IC50.
The nature of series [5]: Selectivity index, ratio of IC50 for human NFF cells to IC50 for Plasmodium falciparum. The format is toxicity. As to conditions: read-out: Ratio IC50.
For another series, the system named is Toxoplasma gondii. As to the kind of experiment: Antiparasitic activity against Toxoplasma gondii. It counts as functional, organism-based.
For series [6], the system named is Plasmodium falciparum. As to the kind of experiment: Gametocytocidal activity against transgenic GFP-fused Plasmodium falciparum NF54 early stage gametocytes after 72 hrs by Mitotracker Red CMH2XRos staining based microscopic method. It counts as functional, organism-based. As to conditions: NF54, 72 h.
Series [7] concerns Plasmodium falciparum. Briefly: Gametocytocidal activity against transgenic GFP-fused Plasmodium falciparum NF54 late stage gametocytes after 72 hrs by Mitotracker Red CMH2XRos staining based microscopic method. It counts as functional, organism-based. The following applies: NF54, 72 h.
Series [8] addresses T1, Histone deacetylase 8 (Schistosoma mansoni, UniProt A5H660).
T1 sequence (A5H660 whole entry): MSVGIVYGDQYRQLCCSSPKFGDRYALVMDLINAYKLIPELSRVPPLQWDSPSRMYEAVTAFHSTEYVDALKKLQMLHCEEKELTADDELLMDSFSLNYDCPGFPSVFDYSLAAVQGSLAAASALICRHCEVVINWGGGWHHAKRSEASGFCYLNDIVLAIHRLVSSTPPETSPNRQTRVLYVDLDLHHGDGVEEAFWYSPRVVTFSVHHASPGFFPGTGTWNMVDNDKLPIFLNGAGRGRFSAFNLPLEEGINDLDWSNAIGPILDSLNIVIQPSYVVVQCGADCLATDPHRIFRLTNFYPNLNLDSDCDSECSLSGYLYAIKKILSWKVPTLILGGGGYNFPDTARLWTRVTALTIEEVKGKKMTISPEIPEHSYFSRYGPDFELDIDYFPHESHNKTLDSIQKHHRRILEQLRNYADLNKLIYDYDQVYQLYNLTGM
As to the kind of experiment: Inhibition of Schistosoma mansoni HDAC8 using Fluor de Lys(R) as substrate by fluorimetric assay.

Series [9] concerns the target T2, Histone deacetylase 8 (Homo sapiens, UniProt Q9BY41).
T2 sequence (Q9BY41 whole entry): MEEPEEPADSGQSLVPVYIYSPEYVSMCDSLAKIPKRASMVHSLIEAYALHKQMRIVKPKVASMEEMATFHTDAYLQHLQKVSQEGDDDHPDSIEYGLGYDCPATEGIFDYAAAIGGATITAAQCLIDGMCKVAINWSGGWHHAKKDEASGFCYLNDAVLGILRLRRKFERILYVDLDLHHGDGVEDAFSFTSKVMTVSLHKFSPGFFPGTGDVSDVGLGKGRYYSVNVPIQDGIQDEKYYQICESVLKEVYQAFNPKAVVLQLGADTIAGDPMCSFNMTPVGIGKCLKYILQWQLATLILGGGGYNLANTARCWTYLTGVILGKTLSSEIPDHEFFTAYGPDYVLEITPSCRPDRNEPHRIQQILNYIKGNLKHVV
As to the kind of experiment: Inhibition of human HDAC8 using Fluor de Lys(R) as substrate by fluorimetric assay.

The target in the next series is Histone deacetylase 1 (Homo sapiens, UniProt Q13547). As to the kind of experiment: Inhibition of human HDAC1 using Z(Ac)Lys-AMC as substrate by fluorimetric assay.
Histone deacetylase 1, sequence (Q13547 whole entry): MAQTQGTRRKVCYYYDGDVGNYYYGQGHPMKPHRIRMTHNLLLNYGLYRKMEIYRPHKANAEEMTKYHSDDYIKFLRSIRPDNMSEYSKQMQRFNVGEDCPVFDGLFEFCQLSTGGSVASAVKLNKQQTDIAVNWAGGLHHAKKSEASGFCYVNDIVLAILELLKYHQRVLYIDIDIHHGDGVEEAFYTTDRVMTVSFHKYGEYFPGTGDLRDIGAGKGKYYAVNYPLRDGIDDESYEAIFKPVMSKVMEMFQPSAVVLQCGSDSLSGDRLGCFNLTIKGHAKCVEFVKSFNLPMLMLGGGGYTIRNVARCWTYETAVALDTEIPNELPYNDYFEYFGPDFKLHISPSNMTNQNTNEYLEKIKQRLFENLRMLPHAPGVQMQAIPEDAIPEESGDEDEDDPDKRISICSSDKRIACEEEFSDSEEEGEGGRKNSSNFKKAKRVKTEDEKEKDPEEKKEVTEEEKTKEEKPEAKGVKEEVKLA
Series [10] has as its target T3, Protein deacetylase HDAC6 (Homo sapiens, UniProt Q9UBN7).
T3 sequence (Q9UBN7 whole entry): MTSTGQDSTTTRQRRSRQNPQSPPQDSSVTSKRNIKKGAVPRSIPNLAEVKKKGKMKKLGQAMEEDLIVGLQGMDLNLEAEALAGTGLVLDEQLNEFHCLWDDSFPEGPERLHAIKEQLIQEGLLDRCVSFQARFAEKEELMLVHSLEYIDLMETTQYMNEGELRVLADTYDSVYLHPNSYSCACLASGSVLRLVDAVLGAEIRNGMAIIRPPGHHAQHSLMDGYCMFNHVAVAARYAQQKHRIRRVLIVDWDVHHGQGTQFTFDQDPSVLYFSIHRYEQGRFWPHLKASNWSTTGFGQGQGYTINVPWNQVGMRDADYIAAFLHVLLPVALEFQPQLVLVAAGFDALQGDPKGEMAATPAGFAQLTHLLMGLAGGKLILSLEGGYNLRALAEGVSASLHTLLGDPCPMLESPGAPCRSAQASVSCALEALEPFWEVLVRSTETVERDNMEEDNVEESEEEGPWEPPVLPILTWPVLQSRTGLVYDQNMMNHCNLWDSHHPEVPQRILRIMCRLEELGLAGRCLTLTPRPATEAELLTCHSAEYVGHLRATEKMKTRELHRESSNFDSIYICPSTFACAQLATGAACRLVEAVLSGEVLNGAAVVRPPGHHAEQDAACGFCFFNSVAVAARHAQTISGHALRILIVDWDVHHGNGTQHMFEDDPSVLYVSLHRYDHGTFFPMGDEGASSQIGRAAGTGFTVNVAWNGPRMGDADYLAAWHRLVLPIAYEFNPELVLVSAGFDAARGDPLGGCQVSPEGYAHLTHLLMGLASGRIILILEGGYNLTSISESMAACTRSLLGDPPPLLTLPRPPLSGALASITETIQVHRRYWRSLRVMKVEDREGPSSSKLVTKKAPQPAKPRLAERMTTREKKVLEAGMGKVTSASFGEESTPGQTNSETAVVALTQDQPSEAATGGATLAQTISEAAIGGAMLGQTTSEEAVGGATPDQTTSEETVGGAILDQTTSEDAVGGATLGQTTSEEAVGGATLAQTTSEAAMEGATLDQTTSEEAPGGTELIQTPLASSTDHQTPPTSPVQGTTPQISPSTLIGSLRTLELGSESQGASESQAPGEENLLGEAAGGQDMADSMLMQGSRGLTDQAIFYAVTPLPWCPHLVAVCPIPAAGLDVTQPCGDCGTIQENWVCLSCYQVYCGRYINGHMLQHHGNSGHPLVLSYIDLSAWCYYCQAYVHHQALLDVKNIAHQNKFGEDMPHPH
Briefly: Inhibition of human HDAC6 using Z(Ac)Lys-AMC as substrate by fluorimetric assay.

The next series has as its system Schistosoma mansoni. Briefly: Antiparasitic activity against Schistosoma mansoni assessed as reduction in cell viability at 50 uM after 3 days relative to control. The format is functional.

By IC50 is commonly meant the concentration that gives 50% inhibition. A lower IC50 goes with inhibition by little substance. Compound `CCCCc1nc2cc(/C=C/C(=O)NO)ccc2n1CCN(CC)CC` [PRACINOSTAT] gave an IC50 in the series with Plasmodium falciparum [1] of 0.08 to 0.15 µM. Further, the selectivity ratio in series [2], in [3], in series [4] and in [5] was 4 to 1250 in each case.

In the series on Toxoplasma gondii, `CCC(=O)CCCCC[C@@H]1NC(=O)[C@H]2CCCCN2C(=O)[C@H]([C@@H](C)CC)NC(=O)[C@H](Cc2cn(OC)c3ccccc23)NC1=O` [APICIDIN] returned an IC50 of 0.013 to 0.015 µM.

For the compound `O=C(CCCCCCC(=O)Nc1ccccc1)NO` [VORINOSTAT], the concentration for half-maximal inhibition (IC50) in the series on Plasmodium falciparum [6] and with Plasmodium falciparum [7] was 1.68 to 6.65 µM each time.

On to `O=C(NO)c1sc2ccccc2c1Cl`, for which the IC50 was 4.3 µM against Histone deacetylase 8 [8], 3.1 µM against Histone deacetylase 8 [9], 19.4 µM against Histone deacetylase 1 and 37.4 µM in [10]. The Activity with Schistosoma mansoni turned out to be 100%.
